The nature of the series: Hydration studies. The format is physicochemical. The settings on record: 24 h. The protocol: Hydration studies were carried out as follows: • Approximately 10-20 mg of Formula I free base, L-tartrate Pattern 1, were weighed into 1.5 mL vials. • Water/acetone mixtures were prepared to give water activities of 0.281, 0.637 and 0.888. • The appropriate water/acetone mixture was then added to each vial to form a slurry and the vials capped and shaken at ambient temperature for 24 hours. • After this time, the slurries were transferred to centrifuge tubes containing nylon filters (0.22 μm) and centrifuged for 15 minutes. The isolated solids were analyzed by XRPD.

As for `COc1cc(C2CCN(C)CC2)ccc1Nc1ncc(C(F)(F)F)c(CCc2ccccc2CC(N)=O)n1` [L-Tartrate], the “XRPD Result” value was “Pattern 1” (Water Activity 0.281, water/acetone); “Pattern 1” (Water Activity 0.637, water/acetone); “Pattern 2 (hydrate)” (Water activity 0.888, water/acetone, listed as L-Tartrate Pattern 1); “L-tartrate Pattern 2” (Water activity 0.888, water/acetone, listed as L-tartrate Pattern 1).

The record behind these values is patent US12466807B2, “Salt and crystal form of a FAK inhibitor” (Amplia Therapeutics Limited, priority 2019, dated 2025).
